Assay results published in patent publication US11634395B2, “Sulfonamide compound or salt thereof” (Taiho Pharmaceutical Co., Ltd., priority 2016, dated 2023).

Tested on: HCC 1806 cells
Experiment: Cell proliferation inhibitory effect on human breast cancer cell line (crystal violet, 72 hours)
Assay type: cell-based
Details: read-out: Cell growth suppression IC50
Experimental: Human derived breast cancer cell line HCC 1806 cells were daily passaged at a cell density not exceeding 80% in ATCC recommended Roswell Park Memorial Institute medium (RPMI-1640) containing 10% fetal bovine serum (FBS). In order to start the test of cell proliferation inhibitory activity, HCC 1806 cells were suspended in the above medium, after seeing at 180 μl in each well of a 96-well flat bottom plate so that the number of cells per well was 2,000, the cells were cultured at 37° C. for 1 day in an incubator containing 5% carbon dioxide gas. On the next day, the test compound was dissolved in DMSO, and 20 μl of a drug additive solution diluted serially with distilled water to 10 times of the final concentration was added to each well of the culture plate of the cells, and the cells were cultured at 37° C. for 72 hours in an incubator containing 5% carbon dioxide gas. […] 100 μL of an extract solution (0.1 N NaH2PO4: 100% ethanol=1:1) was added to each well and mixed, and the mixture was measured at a wavelength of 540 nm using a plate reader (MTP-450 manufactured by Corona Electric Co., Ltd.). […]
T: Absorbance of well to which test compound was added
C: Absorbance of wells to which no test compound was added
B: Absorbance of wells to which no cell suspension was added

IC50: 600 nM
SMILES: Cc1ccc(F)c([C@@H](C)[C@H](NS(=O)(=O)c2ccc(C(F)(F)F)c3c2OCCC3(C)O)c2n[nH]c(=O)o2)c1C (single isomer, unassigned) [Example 225A]
